Patent publication US11306100B2, “Spirooxindole compounds as GSK3B inhibitors and process for preparation thereof” (COUNCIL OF SCIENTIFIC & INDUSTRIAL RESEARCH, priority 2017, dated 2022)

What was measured:
[1] = tested on: NF-kB activity in PANC-1 cells; assay: NFkB luciferase reporter assay; format: cell-based; conditions: 48 h treatment, dose dependent
Protocol: In order to evaluate the effect of GSK3β inhibition on NF-kB activity, a reporter assay has been performed in the presence of identified inhibitors. To perform reporter assays, PANC-1 cells were cultured in a 48 well plate (16000 cells/well) overnight. Following day, cells were transfected with appropriate amount NF-kB reporter construct using lipofectamine 2000 as per manufacturer's protocol. After 16 hrs of post transfection cells were treated with identified GSK3β inhibitors and positive controls. After 48 h of treatment, cells were harvested in directly 1×ccl buffer. For measuring luciferase activity, 5 μl of cell lysate was mixed with 20 μl of assay reagent containing substrate for luciferase in MTP well plate as per manufacturer's protocol. The luciferase activity was determined by measuring luminescence at wavelengths in multimode reader. The protein concentration of the lysates was estimated by Bradford assay to normalize luciferase activity with protein present in the lysates. Then the relative luciferase activity was calculated according to control cells treated with DMSO set to 1. All experiments were performed in triplicates and the mean values with ±SD are presented here.

PANC-1 cells [2] = assay: Colony formation (soft agar, clonogenic) assay; format: cell-based
Protocol: To determine the efficiency of GSK3β inhibitors in combination with the TRIAL on anchorage independent growth of PANC-1 cells soft agar assay were performed. The base agar (0.5%) was prepared by mixing equal amounts of 1% agar with 2× media (20% FBS and 2× antibiotics) filled in 6-well plate. Simultaneously, PANC-1 cells (14000/well) mixed with 2× media containing different concentrations of identified compounds alone or in combination with TRAIL mixed with 0.7% of sterile agar to achieve final concentration of […] top agar. The cell suspension was spread on solidified base agar. Then the plates were incubated in CO2 incubator for 14 days and the cells were fed with fresh media containing respective concentration and combination of TRIAL every 3 days. Upon termination (after 14 days of incubation) plates were stained with 0.005% of crystal violet for 1 h and excess stain was removed by washing with MQ. The number of blue colonies were counted using olympus Xi71 microscope.

PANC-1 cells [3] = assay: Cell cycle analysis / cell death by PI uptake, flow cytometry; format: cell-based; conditions: for cell death by FACS: 25 uM compound; for cell death (% of cells in subG1): in combination with TRAIL versus compounds alone or TRAIL alone
Protocol: To determine effect of GSK3β inhibitors on cell death and/or cell cycle progression, PANC-1 cells were treated with identified molecules with or without TRAIL. Upon treatment with compounds in combination with TRAIL, PANC-1 cell death was determined with propidium iodide (PI) uptake measured by Flow cytometry. Treated cells were harvested in cold PBS and fixed in 70% ethanol at −20° C. for overnight. The fixed cells were by centrifugation and re-suspended in PI ([…]) solution containing RNase (0.1 mg/mL) and Triton X-100 (0.05%). The cells were incubated in dark for 1 h at room temperature. The excess PI was washed out using PBS, the resultant PI uptake was analyzed by FACS Caliber System (BD Bio-science, Erembodegem, Belgium) in an FL-2 fluorescence detector (10000 events were recorded for each condition). Flow cytometry data was analyzed using FCS express 4 software (De Novo Software, Los Angeles, Calif., USA).

recombinant GSK3β = recombinant GSK3β (Homo sapiens, UniProt P49841); assay: ADP-Glo kinase assay of GSK3β activity; format: biochemical; conditions: for IC50: GSK3β kinase activity, 2 μM ATP
Protocol: Activity of recombinant GSK3β is measured using ADP-Glo Kinase assay according to supplier's standard protocol with minor modifications in 384 well format. Briefly, kinase reaction mixture was prepared by adding […] of recombinant enzyme, 2 μM ATP, 1 μg of enzyme substrate along with test compound or DMSO to a final volume of 5 μl. The kinase reaction was performed by incubating the mixture at room temperature for 17 mins. To correct reaction back ground a substrate blank reaction was also performed. ADP glow reagent (equal volume to reaction mixture) was added to the reaction mixture to deplete any unused ATP added to the kinase reaction and incubated at further 40 min at 27° C. Then 10 μl of kinase detection reagent was added followed by incubation for 30 min at 27° C. to convert ADP to ATP and introduce luciferase to measure kinase activity. The luminescence was measured using luminometer (Perkin Elmer) which is directly proportional to ADP generated in kinase reaction. To determine the amount of ADP produced in kinase reaction and calculate specific activity of the enzyme, a conversion curve is prepared by serial dilution of ADP and ATP mixture. Specific activity of the GSK3β was calculated using the following equation. (ADP(kinase reaction)−ADP(substrate blank)) in mmol)/(Reaction time in min)×(GSK3β in mg).

[4] = compound in the presence of TRAIL 10 ηg/mL

Chain of recombinant GSK3β (P49841 whole entry): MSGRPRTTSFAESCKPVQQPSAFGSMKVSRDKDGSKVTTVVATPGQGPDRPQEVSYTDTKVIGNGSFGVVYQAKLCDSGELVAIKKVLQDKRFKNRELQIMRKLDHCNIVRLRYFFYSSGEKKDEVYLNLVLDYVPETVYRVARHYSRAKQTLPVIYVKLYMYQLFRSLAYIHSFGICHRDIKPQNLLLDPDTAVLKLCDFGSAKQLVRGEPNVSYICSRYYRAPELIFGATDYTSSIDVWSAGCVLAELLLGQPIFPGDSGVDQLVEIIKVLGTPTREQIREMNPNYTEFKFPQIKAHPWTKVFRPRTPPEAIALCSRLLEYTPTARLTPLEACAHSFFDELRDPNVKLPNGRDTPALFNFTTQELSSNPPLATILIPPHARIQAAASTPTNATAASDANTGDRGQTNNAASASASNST

Row | SMILES | NFkB luciferase activity [1] | inhibition of colony formation (PANC-1 cells [2]; compound alone, 14 days) | inhibition of colony formation (PANC-1 cells [2]; [4]) | cell death by FACS (PANC-1 cells [3]) | cell death (% of cells in subG1) (PANC-1 cells [3]) | inhibition of GSK3β in in-vitro kinase assays (recombinant GSK3β) | IC50 (recombinant GSK3β) [µM]
1 | CCOC(=O)c1ccc(-c2ccccc2OCc2cn(CC3CC4(CO3)C(=O)Nc3ccccc34)nn2)nc1C (centres unmarked) [AB-O, Ethyl 2-methyl-6-(2-((1-((2′-oxo-4,5-dihydro-2H-spiro[furan-3,3′-indoline]-5-yl)methyl)-1H-1,2,3-triazol-4-yl)methoxy)phenyl)nicotinate] | significantly decreased | dose-dependent inhibition | more effective inhibition of colony formation | cell death even at 25 uM | more cell death | potent inhibition | 3.88 ± 0.01
2 | COc1ccccc1N1CCN(CC2CC3(CO2)C(=O)Nc2ccccc23)CC1 (centres unmarked) [AB-U, 5-((4-(2-Methoxyphenyl)piperazin-1-yl)methyl)-4,5-dihydro-2H-spiro[furan-3,3′-indolin]-2′-one] | significantly decreased | dose-dependent inhibition | more effective inhibition of colony formation | cell death even at 25 uM | more cell death | potent inhibition | 4.92 ± 0.13
